Target: T1, PcE1 (Panonychus citri, UniProt D7NHW8)
T1 construct: ORF in pFastBac HTA, baculovirus-infected Sf9 cells; supernatant of cell homogenate
T1 sequence (D7NHW8 19-550): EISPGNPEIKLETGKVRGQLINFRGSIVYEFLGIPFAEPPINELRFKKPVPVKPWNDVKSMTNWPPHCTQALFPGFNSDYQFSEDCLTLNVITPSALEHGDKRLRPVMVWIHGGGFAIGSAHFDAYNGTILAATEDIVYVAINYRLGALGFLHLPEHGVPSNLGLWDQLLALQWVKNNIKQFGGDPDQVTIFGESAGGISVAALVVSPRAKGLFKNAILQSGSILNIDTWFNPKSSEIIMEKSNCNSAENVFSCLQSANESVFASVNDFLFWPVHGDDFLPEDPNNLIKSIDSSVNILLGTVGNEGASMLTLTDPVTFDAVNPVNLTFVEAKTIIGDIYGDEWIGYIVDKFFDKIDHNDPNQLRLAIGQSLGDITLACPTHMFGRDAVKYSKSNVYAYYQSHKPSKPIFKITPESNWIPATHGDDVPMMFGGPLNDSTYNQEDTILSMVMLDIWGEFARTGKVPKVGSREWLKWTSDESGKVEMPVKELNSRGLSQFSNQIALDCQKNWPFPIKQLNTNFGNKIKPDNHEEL
Assay: spectrophotometric, fast blue coupling, […] nm
Format: biochemical
Conditions: Sf9 cell lysate versus GFP control; pH 7.0, 30 °C

In the case of `CC(=O)Oc1cccc2ccccc12` [α-naphthyl acetate], the “spectrophotometric, fast blue coupling, 600 nm” value is reported as “All recombinant proteins showed significant catalytic activities when α-NA was used as the substrate”.

From publication PMC5000756, “Involvement of Three Esterase Genes from Panonychus citri (McGregor) in Fenpropathrin Resistance” (International Journal of Molecular Sciences, 2016)
